Measured values taken from patent US4352803A, “Novel naphthyridine derivatives, intermediates thereof, processes for preparation thereof, and use thereof” (Dainippon Pharmaceutical Co., Ltd., priority 1978, dated 1982).
In brackets after ≈: the same amount, converted by molar mass. Where a name gives a salt, the structure may show the parent alone. Read-outs that look alike come from different tables or passages of the source.

Columns and labels:
[1] = tested on: Staphylococcus aureus 209P JC-1; assay: In vitro antibacterial activity (MIC), Staphylococcus aureus 209P JC-1; assay type: cell-based; conditions: read-out: minimum inhibitory concentration (MIC)
From the text: (§1) (MIC) (μg/ml) Method; Chemotherapy, 22(6), 1126 (1974)

[2] = tested on: Staphylococcus aureus No. 50774; assay: In vitro antibacterial activity (MIC), Staphylococcus aureus No. 50774; assay type: cell-based
From the text: as §1

[3] = tested on: Streptococcus faecalis P-2473; assay: In vitro antibacterial activity (MIC), Streptococcus faecalis P-2473; assay type: cell-based; conditions: Enterococcus faecalis
From the text: as §1

[4] = tested on: Streptococcus pyogenes 65A; assay: In vitro antibacterial activity (MIC), Streptococcus pyogenes 65A; assay type: cell-based; conditions: read-out: minimum inhibitory concentration (MIC)
From the text: as §1

[5] = tested on: Corynebacterium pyogenes C-21; assay: In vitro antibacterial activity (MIC), Corynebacterium pyogenes C-21; assay type: cell-based; conditions: Rhodococcus (subgen. Prescottella) equi
From the text: as §1

[6] = tested on: Escherichia coli NIHJ JC-2; assay: In vitro antibacterial activity (MIC), Escherichia coli NIHJ JC-2; assay type: cell-based
From the text: as §1

Escherichia coli P-5101 [7] = assay: In vitro antibacterial activity (MIC), Escherichia coli P-5101; assay type: cell-based; conditions: Escherichia coli, P5101, read-out: minimum inhibitory concentration (MIC)
From the text: as §1

Escherichia coli P-140a = assay: In vitro antibacterial activity (MIC), Escherichia coli P-140a; assay type: cell-based; conditions: read-out: minimum inhibitory concentration (MIC)
From the text: as §1

[8] = tested on: Salmonella typhimurium 8-9; assay: In vitro antibacterial activity (MIC), Salmonella typhimurium 8-9; assay type: cell-based; conditions: Salmonella enterica, read-out: minimum inhibitory concentration (MIC)
From the text: as §1

[9] = tested on: Salmonella enteritidis No. 1891; assay: In vitro antibacterial activity (MIC), Salmonella enteritidis No. 1891; assay type: cell-based; conditions: Salmonella enterica, read-out: minimum inhibitory concentration (MIC)
From the text: as §1

Shigella flexneri 2a = assay: In vitro antibacterial activity (MIC), Shigella flexneri 2a; assay type: cell-based; conditions: read-out: minimum inhibitory concentration (MIC)
From the text: as §1

[10] = tested on: Shigella flexneri 4a P-330; assay: In vitro antibacterial activity (MIC), Shigella flexneri 4a P-330; assay type: cell-based; conditions: 4AP330, read-out: minimum inhibitory concentration (MIC)
From the text: as §1

[11] = tested on: Klebsiella pneumoniae No. 13; assay: In vitro antibacterial activity (MIC), Klebsiella pneumoniae No. 13; assay type: cell-based
From the text: as §1

[12] = tested on: Enterobacter cloacae P-2540; assay: In vitro antibacterial activity (MIC), Enterobacter cloacae P-2540; assay type: cell-based
From the text: as §1

[13] = tested on: Pseudomonas aeruginosa Tsuchijima; assay: In vitro antibacterial activity (MIC), Pseudomonas aeruginosa Tsuchijima; assay type: cell-based; conditions: read-out: minimum inhibitory concentration (MIC)
From the text: as §1

[14] = tested on: Pseudomonas aeruginosa No. 12; assay: In vitro antibacterial activity (MIC), Pseudomonas aeruginosa No. 12; assay type: cell-based
From the text: as §1

[15] = tested on: Serratia marcescens IFC 3736; assay: In vitro antibacterial activity (MIC), Serratia marcescens IFC 3736; assay type: cell-based
From the text: as §1

Proteus morganii Kono = assay: In vitro antibacterial activity (MIC), Proteus morganii Kono; assay type: cell-based; conditions: Morganella morganii, read-out: minimum inhibitory concentration (MIC)
From the text: as §1

Proteus mirabilis P-2381 = assay: In vitro antibacterial activity (MIC), Proteus mirabilis P-2381; assay type: cell-based
From the text: as §1

in vivo = conditions: mouse, in vivo, po
Method: The number of dead mice was counted after 7 days, and the value of median lethal dose (LD50, mg/kg) was calculated in accordance with the Behrens-Kaerber method.

Escherichia coli P-5101 [16] = assay: in vivo efficacy against systemic infection in mice, Escherichia coli P-5101; conditions: P5101, in Mus musculus, po, 168 h
Method: Male mice (ddY) weighing about 20 g
Intraperitoneal infection with (about
9 × 10^6 cells/mouse) of a bacterial
(§2) suspension in trypto-soy broth with 4% mucin.
(§3) Twice, about 5 minutes and 6 hours after infection.

[17] = tested on: Pseudomonas aeruginosa No. 12; assay: in vivo efficacy against systemic infection in mice, Pseudomonas aeruginosa No. 12; conditions: NO.12, in Mus musculus, po, 168 h
Method: Male mice (ddY) weighing about 20 g
(3) Pseudomonas aeruginosa No. 12;
(about 5 × 10^3 cells/mouse) of a bacterial
as §2, §3
The numerals in the table show ED50 (mg/kg). ED50 values were

[18] = tested on: Staphylococcus aureus No. 50774; assay: in vivo efficacy against systemic infection in mice, Staphylococcus aureus No. 50774; conditions: NO.50774, in Mus musculus, po, 336 h
Method: Male mice (ddY) weighing about 20 g
Intravenous infection with (about
5 × 10^8 cells/mouse) of a bacterial
as §3

[19] = tested on: Gram-positive and Gram-negative bacteria; assay: in vivo therapeutic efficacy against systemic infections in mice (overall); parameters: species or system mice (ddY)
[20] = Staphylococcus aureus 209P JC-1
[21] = Staphylococcus aureus No. 50774, read-out: minimum inhibitory concentration (MIC)
[22] = P2473, Streptococcus faecalis P-2473, read-out: minimum inhibitory concentration (MIC)
[23] = C21, Corynebacterium pyogenes C-21, read-out: minimum inhibitory concentration (MIC)
[24] = Salmonella enteritidis No. 1891
[25] = Klebsiella pneumoniae, NO.13, read-out: minimum inhibitory concentration (MIC)
[26] = P2540, Enterobacter cloacae P-2540, read-out: minimum inhibitory concentration (MIC)
[27] = Pseudomonas aeruginosa Tsuchijima
[28] = Pseudomonas aeruginosa No. 12, read-out: minimum inhibitory concentration (MIC)
[29] = Serratia marcescens, IFC3736, read-out: minimum inhibitory concentration (MIC)
[30] = P2381, Proteus mirabilis P-2381, read-out: minimum inhibitory concentration (MIC)
[31] = Staphylococcus aureus, NO.50774, read-out: minimum inhibitory concentration (MIC)
[32] = P2473, read-out: minimum inhibitory concentration (MIC)
[33] = C21, read-out: minimum inhibitory concentration (MIC)
[34] = Escherichia coli, NIHJJC2, read-out: minimum inhibitory concentration (MIC)
[35] = Enterobacter cloacae, P2540, read-out: minimum inhibitory concentration (MIC)
[36] = Pseudomonas aeruginosa, NO.12, read-out: minimum inhibitory concentration (MIC)
[37] = Klebsiella pneumoniae No. 13, read-out: minimum inhibitory concentration (MIC)
[38] = Proteus mirabilis, P2381, read-out: minimum inhibitory concentration (MIC)

Row | Structure (SMILES) | MIC [1, 20] | MIC [5, 23] | MIC (Escherichia coli P-5101 [7]) | MIC (Escherichia coli P-140a; Escherichia coli) | MIC (Shigella flexneri 2a) | MIC [10] | MIC [11, 25] | MIC [14, 28] | MIC [15, 29] | MIC (Proteus morganii Kono) | ED50 (Escherichia coli P-5101 [16]) | ED50 [17] | ED50 [18] | MIC [2, 31] | MIC [3, 32] | MIC ([4]; Streptococcus pyogenes, 65A) | MIC [6, 34] | MIC ([8]; TYPHIMURIUM) | MIC ([9]; ENTERITIDIS) | MIC [12, 35] | also measured
1 | CCn1cc(C(=O)O)c(=O)c2cc(Cl)c(N3CCNCC3)nc21.Cl [Compound 3, 6-Chloro-1-ethyl-1,4-dihydro-4-oxo-7-(1-piperazinyl)-1,8-naphthyridine-3-carboxylic acid hydrochloride] | 3.13 µg/mL | 6.25 µg/mL | 0.39 µg/mL | 0.39 µg/mL | 0.78 µg/mL | 1.56 µg/mL | 1.56 µg/mL | 6.25 µg/mL | 1.56 µg/mL | 1.56 µg/mL | 6.5 mg/kg | 58.6 mg/kg | ~90 mg/kg | – | – | – | – | – | – | – | MIC [2, 21]: 6.25 µg/mL; MIC [3, 22]: 25 µg/mL; MIC ([4]; Streptococcus pyogenes 65A): 12.5 µg/mL; MIC ([6]; NIHJJC2, Escherichia coli NIHJ JC-2, read-out: minimum inhibitory concentration (MIC)): 0.78 µg/mL; MIC ([8]; Salmonella typhimurium 8-9): 0.39 µg/mL; MIC [9, 24]: 0.39 µg/mL; MIC [12, 26]: 0.78 µg/mL; MIC [13, 27]: 6.25 µg/mL; MIC (Proteus mirabilis P-2381; [30]): 3.13 µg/mL; LD50 at 168 h (in vivo): > 2000 mg/kg
2 | CCn1cc(C(=O)O)c(=O)c2ccc(C)nc21 [E, 1-Ethyl-1,4-dihydro-7-methyl-4-oxo-1,8-naphthyridine-3-carboxylic acid] | – | – | 3.13 µg/mL (≈ 13.5 µM) | – | 6.25 µg/mL (≈ 26.9 µM) | – | 12.5 µg/mL (≈ 53.8 µM) | – | 6.25 µg/mL (≈ 26.9 µM) | 6.25 µg/mL (≈ 26.9 µM) | 29.2 mg/kg | > 200 mg/kg | > 800 mg/kg | 50 µg/mL (≈ 215 µM) | > 200 µg/mL | > 200 µg/mL | 12.5 µg/mL (≈ 53.8 µM) | 3.13 µg/mL (≈ 13.5 µM) | 3.13 µg/mL (≈ 13.5 µM) | 6.25 µg/mL (≈ 26.9 µM) | MIC ([1]; Staphylococcus aureus, 209P): 100 µg/mL (≈ 431 µM); MIC [5, 33]: > 200 µg/mL; MIC ([13]; Pseudomonas aeruginosa): 200 µg/mL (≈ 861 µM); MIC [14, 36]: 200 µg/mL (≈ 861 µM); therapeutic effects in vivo against Gram-negative bacteria, relative to compounds 1, 1' and 2 ([19]; Gram-negative, particularly Pseudomonas aeruginosa): clearly inferior
3 | CCn1cc(C(=O)O)c(=O)c2cnc(N3CCNCC3)nc21 [F, 8-Ethyl-5,8-dihydro-5-oxo-2-(1-piperazinyl)pyrido[2,3-d] pyrimidine-6-carboxylic acid] | 12.5 µg/mL (≈ 41.2 µM) | 25 µg/mL (≈ 82.4 µM) | 1.56 µg/mL (≈ 5.14 µM) | 1.56 µg/mL (≈ 5.14 µM) | 3.13 µg/mL (≈ 10.3 µM) | 1.56 µg/mL (≈ 5.14 µM) | – | 25 µg/mL (≈ 82.4 µM) | 3.13 µg/mL (≈ 10.3 µM) | 3.13 µg/mL (≈ 10.3 µM) | 21.2 mg/kg | 99.5 mg/kg | 215 mg/kg | 25 µg/mL (≈ 82.4 µM) | 200 µg/mL (≈ 659 µM) | 200 µg/mL (≈ 659 µM) | 1.56 µg/mL (≈ 5.14 µM) | 1.56 µg/mL (≈ 5.14 µM) | 1.56 µg/mL (≈ 5.14 µM) | 1.56 µg/mL (≈ 5.14 µM) | MIC [11, 37]: 6.25 µg/mL (≈ 20.6 µM); MIC [13, 27]: 12.5 µg/mL (≈ 41.2 µM); MIC (Proteus mirabilis P-2381; [38]): 3.13 µg/mL (≈ 10.3 µM)
4 | CC1(C)S[C@@H]2[C@H](NC(=O)C(C(=O)Oc3ccc4c(c3)CCC4)c3ccccc3)C(=O)N2[C@H]1C(=O)O (stereo partly drawn) [G, α-(5-Indanyloxycarbonyl)benzylpenicillin sodium salt] | 0.39 µg/mL | 3.13 µg/mL | 6.25 µg/mL | – | 12.5 µg/mL | 6.25 µg/mL | – | 50 µg/mL | – | – | 100 mg/kg | 202 mg/kg | 10 to 40 mg/kg | – | – | – | 6.25 µg/mL | – | – | – | MIC [2, 21]: 0.78 µg/mL; MIC [3, 22]: 50 µg/mL; MIC ([4]; Streptococcus pyogenes 65A): 0.2 µg/mL; MIC (Escherichia coli P-140a; P140A, Escherichia coli P-140a): 50 µg/mL; MIC ([8]; Salmonella typhimurium 8-9): 0.78 µg/mL; MIC [9, 24]: 0.78 µg/mL; MIC [11, 37]: > 200 µg/mL; MIC [12, 26]: 3.13 µg/mL; MIC ([13]; Pseudomonas aeruginosa): 6.25 µg/mL; MIC ([15]; IFC3736, Serratia marcescens IFC 3736, read-out: minimum inhibitory concentration (MIC)): 3.13 µg/mL; MIC (Proteus morganii Kono; Proteus morganii Kono): 0.78 µg/mL; MIC (Proteus mirabilis P-2381; [30]): 0.78 µg/mL
5 | CC1=C(C(=O)O)N2C(=O)[C@@H](NC(=O)[C@H](N)c3ccccc3)[C@H]2SC1 [J, 7-(D-α-Aminophenylacetamido)desacetoxycephalosporanic acid] | – | – | 12.5 µg/mL (≈ 36 µM) | > 200 µg/mL | 12.5 µg/mL (≈ 36 µM) | 200 µg/mL (≈ 576 µM) | 6.25 µg/mL (≈ 18 µM) | – | > 200 µg/mL | > 200 µg/mL | 22.6 mg/kg | > 400 mg/kg | 12.1 mg/kg | 1.56 µg/mL (≈ 4.49 µM) | 200 µg/mL (≈ 576 µM) | 0.78 µg/mL (≈ 2.25 µM) | 12.5 µg/mL (≈ 36 µM) | 6.25 µg/mL (≈ 18 µM) | 3.13 µg/mL (≈ 9.01 µM) | > 200 µg/mL | MIC ([1]; Staphylococcus aureus, 209P): 1.56 µg/mL (≈ 4.49 µM); MIC [5, 33]: 1.56 µg/mL (≈ 4.49 µM); MIC ([13]; Pseudomonas aeruginosa): > 200 µg/mL; MIC [14, 36]: > 200 µg/mL; MIC (Proteus mirabilis P-2381; [38]): 12.5 µg/mL (≈ 36 µM)
6 | CCOC(=O)c1cn(CC)c2nc(N3CCNCC3)c(F)cc2c1=O [ethyl ester of compound 1, Ethyl 1-ethyl-6-fluoro-1,4-dihydro-4-oxo-7-(1-piperazinyl)-1,8-naphthyridine-3-carboxylate] | – | – | – | – | – | – | – | – | – | – | – | 21 mg/kg | ~20 mg/kg | – | – | – | – | – | – | – | therapeutic effect / in vivo antibacterial activity (in words) ([19]; systemic infections with Gram-positive and Gram-negative bacteria): superior antibacterial activity in vivo
